Patent US20120255051A1, “HERBICIDE TOLERANT PLANTS” (priority 2009, published 2012)

Test system: Brassica plants comprising mutant AHAS alleles
Assay: Field trial, pre-planting treatment (0, 10, 20, 30 g a.i./ha), two locations in Canada: ERG, EST1, EST2, PPTOX, VIG1, VIG2, VIG3 scores
Format: in vivo, Brassica napus
Conditions: for establishment (EST1) score Av, 14 days after sowing / emergence (ERG) score Av: AHAS1 WT
Excerpt: Tests were set up and conducted to asses the growth and performance of plants comprising AHAS full knock-out alleles, and to further analyze the correlation between the presence of full knockout and missense AHAS genes in Brassica plants and plant growth and herbicide tolerance of the Brassica plants in the field. To this end, the Brassica plants identified in Example 1 and 2 were backcrossed two times with an elite parent line, and subsequently selfed twice to obtain homozygous plants (BC2S2). Plants were grown as row plots in a split plot design with three replicates (main plots=herbicide treatments, subplots=genotypes) at two locations in Canada. Treatment pre-planting was carried out on the soil about two days before sowing with a dose of 0 (treatment A), 10 (treatment B), 20 (treatment C) or 30 (treatment D) g a.i./ha of thiencarbazone methyl. Herbicide tolerance was measured by scoring for different parameters. The parameter emergence (ERG) was scored at the cotyledon stage on a scale 1-9, where 1 means late emergence and 9 means early emergence. Establishment was scored 14 days after sowing (EST1) and 21 days after sowing (EST2). Scores were from 1 to 9, where 1 is the worst establishment (least plants that emerged), and 9 is the best establishment (most plants emerged). Phytotoxicity (PPTOX) was determined after establishment. Plants were evaluated on a scale of 1 to 9, where 1=completely yellowing, 5=50% of plant is yellow and 9=no yellowing. The vigor scores (see above) were determined at 1-2 leaf stage (VIG1), 7 days after VIG1 (VIG2) and 14 days after VIG1 (VIG3). The average values (Av) and standard deviations (SD) of the scores for the different parameters are represented in Table 7a-g.
Further, the contribution of the knock-out allele to herbicide tolerance conferred by the missense allele was calculated. First, the scores were corrected for a possible effect of the growth per se, independent of herbicide treatment. To this end, the scores for treatments B, C and D were divided by the scores for treatment A for the same genotype and for the same parameter (corrected herbicide tolerance scores). Next, the effect of the knock-out allele to these corrected herbicide tolerance scores obtained by the missense allele was calculated. Therefore, the corrected herbicide tolerance scores for the missense—knock-out allele combination was divided by the corrected herbicide tolerance scores for the missense allele—wild-type combination. In case the knock-out allele has no effect on herbicide tolerance conferred by the missense allele, this ratio should be 1. In case the knock-out allele positively contributes to the herbicide tolerance conferred by the missense allele, this ratio should be higher than 1. The results for the contribution of the knock-out allele to herbicide tolerance conferred by the missense allele as calculated above are shown in table 8.

[1] = AHAS3 HETO111 (HETO108+HETO111 series), treatment B 10 g a.i./ha pre-planting, Location B
[2] = AHAS3 HETO111 (HETO108+HETO111 series), treatment C 20 g a.i./ha pre-planting, Location A
[3] = AHAS3 HETO111 (HETO108+HETO111 series), treatment C 20 g a.i./ha pre-planting, Location B
[4] = AHAS3 HETO111 (HETO108+HETO111 series), treatment D 30 g a.i./ha pre-planting, Location A
[5] = AHAS3 HETO111 (HETO108+HETO111 series), treatment D 30 g a.i./ha pre-planting, Location B
[6] = AHAS3 HETO111 (HETO112+HETO111 series), treatment B 10 g a.i./ha pre-planting, Location A
[7] = AHAS3 HETO111 (HETO112+HETO111 series), treatment B 10 g a.i./ha pre-planting, Location B
[8] = AHAS3 HETO111 (HETO112+HETO111 series), treatment C 20 g a.i./ha pre-planting, Location A
[9] = AHAS3 HETO111 (HETO112+HETO111 series), treatment C 20 g a.i./ha pre-planting, Location B
[10] = AHAS3 HETO111 (HETO112+HETO111 series), treatment D 30 g a.i./ha pre-planting, Location A
[11] = AHAS3 HETO111 (HETO112+HETO111 series), treatment D 30 g a.i./ha pre-planting, Location B
[12] = AHAS3 WT (HETO108+HETO104 series), treatment B 10 g a.i./ha pre-planting, Location A
[13] = AHAS3 WT (HETO108+HETO104 series), treatment B 10 g a.i./ha pre-planting, Location B
[14] = AHAS3 WT (HETO108+HETO104 series), treatment C 20 g a.i./ha pre-planting, Location A
[15] = AHAS3 WT (HETO108+HETO104 series), treatment C 20 g a.i./ha pre-planting, Location B
[16] = AHAS3 WT (HETO108+HETO104 series), treatment D 30 g a.i./ha pre-planting, Location A
[17] = AHAS3 WT (HETO108+HETO104 series), treatment D 30 g a.i./ha pre-planting, Location B
[18] = AHAS3 WT (HETO108+HETO111 series), treatment B 10 g a.i./ha pre-planting, Location A
[19] = AHAS3 WT (HETO108+HETO111 series), treatment B 10 g a.i./ha pre-planting, Location B
[20] = AHAS3 WT (HETO108+HETO111 series), treatment C 20 g a.i./ha pre-planting, Location A
[21] = AHAS3 WT (HETO108+HETO111 series), treatment C 20 g a.i./ha pre-planting, Location B
[22] = AHAS3 WT (HETO108+HETO111 series), treatment D 30 g a.i./ha pre-planting, Location A
[23] = AHAS3 WT (HETO108+HETO111 series), treatment D 30 g a.i./ha pre-planting, Location B
[24] = AHAS3 WT (HETO112+HETO111 series), treatment B 10 g a.i./ha pre-planting, Location A
[25] = AHAS3 WT (HETO112+HETO111 series), treatment B 10 g a.i./ha pre-planting, Location B
[26] = AHAS3 WT (HETO112+HETO111 series), treatment C 20 g a.i./ha pre-planting, Location A
[27] = AHAS3 WT (HETO112+HETO111 series), treatment C 20 g a.i./ha pre-planting, Location B
[28] = AHAS3 WT (HETO112+HETO111 series), treatment D 30 g a.i./ha pre-planting, Location A
[29] = AHAS3 WT (HETO112+HETO111 series), treatment D 30 g a.i./ha pre-planting, Location B

Question: For `COC(=O)c1csc(C)c1S(=O)(=O)NC(=O)n1nc(OC)n(C)c1=O` [thiencarbazone-methyl, methyl 4-[(4,5-dihydro-3-methoxy-4-methyl-5-oxo-1H-1,2,4-triazol-1-yl)carbonylsulfamoyl]-5-methylthiophene-3-carboxylate], which “establishment (EST1) score Av, 14 days after sowing” value (“establishment (EST1) score Av” below) (AHAS3 HETO111 (HETO108+HETO111 series), treatment B 10 g a.i./ha pre-planting, Location A) is on record?
Answer: The value was 5.00.

Question: And the “emergence (ERG) score Av” value [1]?
Answer: Its value is 5.00.

Question: And the “establishment (EST1) score Av” value [1]?
Answer: The value was 6.00.

Question: And the “emergence (ERG) score Av” value [2]?
Answer: Its value is 4.67.

Question: And the “establishment (EST1) score Av” value [2]?
Answer: Its value is 5.33.

Question: What about the “emergence (ERG) score Av” value [3] of the same compound?
Answer: Its value is 4.00.

Question: And the “establishment (EST1) score Av” value [3]?
Answer: Its value is 4.67.

Question: What about the “emergence (ERG) score Av” value [4] of the same compound?
Answer: Its value is 4.33.

Question: And the “establishment (EST1) score Av” value [4]?
Answer: Its value is 4.33.

Question: What about the “emergence (ERG) score Av” value [5] of the same compound?
Answer: The value was 4.00.

Question: What about the “establishment (EST1) score Av” value [5] of the same compound?
Answer: The value was 4.33.

Question: What about the “emergence (ERG) score Av” value [6] of the same compound?
Answer: The value was 5.33.

Question: And the “establishment (EST1) score Av” value [6]?
Answer: Its value is 5.67.

Question: What about the “emergence (ERG) score Av” value [7] of the same compound?
Answer: The value was 4.67.

Question: And the “establishment (EST1) score Av” value [7]?
Answer: Its value is 6.00.

Question: What about the “emergence (ERG) score Av” value [8] of the same compound?
Answer: Its value is 4.33.

Question: What about the “establishment (EST1) score Av” value [8] of the same compound?
Answer: The value was 4.67.

Question: What about the “emergence (ERG) score Av” value [9] of the same compound?
Answer: The value was 4.67.

Question: What about the “establishment (EST1) score Av” value [9] of the same compound?
Answer: The value was 4.67.

Question: What about the “emergence (ERG) score Av” value [10] of the same compound?
Answer: Its value is 4.33.

Question: And the “establishment (EST1) score Av” value [10]?
Answer: Its value is 4.33.

Question: What about the “emergence (ERG) score Av” value [11] of the same compound?
Answer: Its value is 3.67.

Question: And the “establishment (EST1) score Av” value [11]?
Answer: Its value is 4.00.

Question: And the “emergence (ERG) score Av” value [12]?
Answer: The value was 1.00.

Question: And the “establishment (EST1) score Av” value [12]?
Answer: Its value is 1.00.

Question: What about the “emergence (ERG) score Av” value [13] of the same compound?
Answer: Its value is 3.00.

Question: And the “establishment (EST1) score Av” value [13]?
Answer: The value was 4.33.

Question: And the “emergence (ERG) score Av” value [14]?
Answer: The value was 1.00.

Question: What about the “establishment (EST1) score Av” value [14] of the same compound?
Answer: Its value is 1.00.

Question: What about the “emergence (ERG) score Av” value [15] of the same compound?
Answer: The value was 1.67.

Question: And the “establishment (EST1) score Av” value [15]?
Answer: The value was 3.67.

Question: What about the “emergence (ERG) score Av” value [16] of the same compound?
Answer: The value was 1.00.

Question: And the “establishment (EST1) score Av” value [16]?
Answer: The value was 1.00.

Question: What about the “emergence (ERG) score Av” value [17] of the same compound?
Answer: The value was 1.33.

Question: What about the “establishment (EST1) score Av” value [17] of the same compound?
Answer: Its value is 1.33.

Question: What about the “emergence (ERG) score Av” value [18] of the same compound?
Answer: The value was 2.33.

Question: And the “establishment (EST1) score Av” value [18]?
Answer: Its value is 2.67.

Question: What about the “emergence (ERG) score Av” value [19] of the same compound?
Answer: The value was 3.33.

Question: And the “establishment (EST1) score Av” value [19]?
Answer: Its value is 4.33.

Question: What about the “emergence (ERG) score Av” value [20] of the same compound?
Answer: Its value is 1.00.

Question: And the “establishment (EST1) score Av” value [20]?
Answer: The value was 1.00.

Question: What about the “emergence (ERG) score Av” value [21] of the same compound?
Answer: Its value is 2.33.

Question: What about the “establishment (EST1) score Av” value [21] of the same compound?
Answer: The value was 4.00.

Question: What about the “emergence (ERG) score Av” value [22] of the same compound?
Answer: The value was 1.00.

Question: And the “establishment (EST1) score Av” value [22]?
Answer: Its value is 1.00.

Question: And the “emergence (ERG) score Av” value [23]?
Answer: The value was 1.33.

Question: What about the “establishment (EST1) score Av” value [23] of the same compound?
Answer: Its value is 1.00.

Question: What about the “emergence (ERG) score Av” value [24] of the same compound?
Answer: The value was 1.00.

Question: What about the “establishment (EST1) score Av” value [24] of the same compound?
Answer: The value was 1.00.

Question: What about the “emergence (ERG) score Av” value [25] of the same compound?
Answer: The value was 3.67.

Question: What about the “establishment (EST1) score Av” value [25] of the same compound?
Answer: The value was 5.00.

Question: And the “emergence (ERG) score Av” value [26]?
Answer: The value was 1.00.

Question: What about the “establishment (EST1) score Av” value [26] of the same compound?
Answer: The value was 1.00.

Question: And the “emergence (ERG) score Av” value [27]?
Answer: Its value is 1.67.

Question: What about the “establishment (EST1) score Av” value [27] of the same compound?
Answer: Its value is 3.33.

Question: What about the “emergence (ERG) score Av” value [28] of the same compound?
Answer: Its value is 1.00.

Question: What about the “establishment (EST1) score Av” value [28] of the same compound?
Answer: Its value is 1.00.

Question: What about the “emergence (ERG) score Av” value [29] of the same compound?
Answer: The value was 1.33.

Question: And the “establishment (EST1) score Av” value [29]?
Answer: Its value is 1.67.

Question: And the “establishment (EST2) score, Av” value (AHAS1 WT/AHAS3 HETO104, 10 g a.i./ha pre-planting (B), Location A)?
Answer: The value was 2.33.
